Reference: patent US9028879B2, “Chromium complexes as enhancers of brain glucose transporters” (JDS Therapeutics, LLC, priority 2009, dated 2015)
Marks after values point to notes of the source that are not given here.

Tests used:
[1] = Serum and brain chromium levels in high fat diet rats
Text: (§1) Briefly, insulin resistance and hyperglycemia were induced in male Wistar rats by feeding a high fat diet (HFD, 40% of calories as fat). A healthy control group received a standard diet (12% of calories as fat). Rats were fed their diets throughout the 12 week study.
(§2) Rats (10/group) were divided into groups: healthy control (Control), HFD, and HFD+CrHis. Chromium (Cr) treated rats were fed CrHis (110 mcg/kg body wt/d). Cr treatment started at the beginning of the study and was continued for 12 weeks. […] Body weight, serum chromium levels, and blood glucose levels were also measured.

[2] = system: subject having GLUT1 deficiency syndrome; assay: Example 3: treatment of subject with GLUT1 deficiency syndrome; assay type: in vivo; details: 50 μg to 5000 μg/day, orally, after a period of time
Text: A subject is identified as having GLUT1 deficiency syndrome. The subject presents with one or more symptoms associated with GLUT1 deficiency syndrome such as the presence of a SLC2A1 mutation, neurological problems associated with GLUT1 deficiency such as stiffness caused by abnormal tensing of the muscles (spasticity), difficulty in coordinating movements (ataxia), and speech difficulties (dysarthria). The subject can experience episodes of confusion, lack of energy (lethargy), headaches, muscle twitches (myoclonus), or involuntary irregular eye movements, particularly before meals.
The subject is administered between 50 μg and 5000 μg chromium histidinate, chromium picolinate, or chromium histidinate/chromium picolinate combination complex/day. The chromium histidinate is administered orally.

[3] = Body weight and blood glucose in high fat diet rats; assay type: in vivo, male Wistar rats
Text: as §1, §2

[4] = system: subject having Alzheimer's disease; assay: Example 5: treatment of subject with Alzheimer's disease with standard therapeutics; assay type: in vivo; details: 50 μg to 5000 μg chromium orally with standard therapeutics, over a period of five days
[5] = reported (Kaats 1998; Cefalu 1999); cited from earlier work
[6] = system: subject having Parkinson's disease; assay: Example 6: treatment of subject with Parkinson's disease; assay type: in vivo; details: 50 μg to 5000 μg, orally, over time
Protocol: A subject is identified as having Parkinson's disease by conventional methods.
The subject is administered between 50 μg and 5000 μg chromium polyhistidinate. The chromium is administered orally.

[7] = HFD rats, CrHis 110 mcg/kg body wt/d, 12 weeks, mean ± s.e.m.
[8] = compared to the high fat diet alone

chromium histidinate [CrHis]
Brain Chromium ([1]; HFD rats, CrHis 110 mcg/kg body wt/d, 12 weeks, brain tissue homogenates, mean ± s.e.m.): 17.7 ± 0.2^c ng/g
Serum Chromium [1, 7]: 22.0 ± 0.6^c ng/g
brain chromium levels, change [1, 8]: significantly increased
serum chromium levels, change [1, 8]: significantly increased
symptoms of GLUT1 deficiency [2]: reduction in one or more of the symptoms
Blood Glucose [3, 7]: 116.4 ± 2.1^c mg/dL
Body Weight [3, 7]: 315.1 ± 1.9^c g
blood glucose levels, change [3, 8]: decreased
body weight, change [3, 8]: decreased

chromium picolinate
subject's condition, as assessed by one or more symptoms of the disease [4]: does not worsen or improves
symptoms of GLUT1 deficiency [2]: reduction in one or more of the symptoms
weight loss and changes in body composition [5]: modest weight loss

chromium polyhistidinate
subject's condition, as assessed by one or more symptoms of the disease [6]: does not worsen or improves
